{"source": "patent US4731109A", "about": "“Herbicidal 2-haloacetanilides” (Monsanto Company, priority 1982, dated 1988)", "assay_type_in_all_cases": "in vivo", "key": {"Barnyardgrass": {"test_system": "Barnyardgrass", "experiment": "Resistance to leaching and resulting herbicidal efficacy", "details": "for inhibition at 140 g/ha / inhibition at 560 g/ha / inhibition at 2360 g/ha: Echinochloa crus-galli, read-out: Percent Inhibition", "summary_of_the_method": "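Treated soil in pots leached under simulated rainfall (one inch (2.5 cm) water per hour, duration varied), held three days at ambient temperature, then laid as surface layer over barnyardgrass-seeded pots. After 2-3 weeks in greenhouse, visual percent growth inhibition versus untreated controls and fresh weights recorded; three replications per compound.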"}, "peanuts": {"test_system": "peanuts", "experiment": "Greenhouse pre-emergence GR15/GR85 selectivity test", "details": "Table XVI"}, "lima beans": {"test_system": "lima beans", "experiment": "Greenhouse pre-emergence GR15/GR85 selectivity test", "details": "Table XVI"}, "purple nutsedge": {"test_system": "purple nutsedge", "experiment": "Greenhouse pre-emergence GR15/GR85 selectivity test", "details": "Table XV", "summary_of_the_method": "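Pre-emergence greenhouse test: compound in solvent or as a wettable powder was mixed into cover soil over the seeds or propagules. Pans got an initial overhead irrigation equal to 0.64 cm of rain (sometimes omitted), then subirrigation, and were assessed about 2-3 weeks later. GR15 (crop) and GR85 (weed) rates were in kg/ha; selectivity factor is their ratio.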"}, "common purslane": {"test_system": "common purslane", "experiment": "Greenhouse pre-emergence GR15/GR85 selectivity test", "details": "Table XV", "summary_of_the_method": "(§1)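 Pre-emergence soil-incorporation test: seeded pans were covered with topsoil mixed with active ingredient (in solvent or as wettable powder), overhead-irrigated (0.64 cm) or not, then subirrigated. Plants were scored about 2-3 weeks after treatment. GR15/GR85 rates are in kg/ha, and selectivity factor is crop GR15 divided by weed GR85.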"}, "redroot pigweed": {"test_system": "redroot pigweed", "experiment": "Greenhouse pre-emergence GR15/GR85 selectivity test", "details": "Table XV", "summary_of_the_method": "as §1"}, "common ragweed": {"test_system": "common ragweed", "experiment": "Greenhouse pre-emergence GR15/GR85 selectivity test", "details": "Table XV", "summary_of_the_method": "as §1"}, "prickly sida": {"test_system": "prickly sida", "experiment": "Greenhouse pre-emergence GR15/GR85 selectivity test", "details": "Table XV", "summary_of_the_method": "as §1"}, "[1]": {"details": "Ray silt loam, 0.14 Kg/Ha, rain 0 cm"}, "[2]": {"details": "Ray silt loam, 0.14 Kg/Ha, rain 1.27 cm"}, "[3]": {"details": "Ray silt loam, 0.14 Kg/Ha, rain 5.08 cm"}, "[4]": {"details": "Ray silt loam, 0.56 Kg/Ha, rain 0 cm"}, "[5]": {"details": "Ray silt loam, 0.56 Kg/Ha, rain 1.27 cm"}, "[6]": {"details": "Ray silt loam, 0.56 Kg/Ha, rain 5.08 cm"}, "[7]": {"details": "Ray silt loam, 0.56 Kg/Ha, rain 10.16 cm"}, "[8]": {"details": "Ray silt loam, 2.36 Kg/Ha, rain 0 cm"}, "[9]": {"details": "Ray silt loam, 2.36 Kg/Ha, rain 1.27 cm"}, "[10]": {"details": "Ray silt loam, 2.36 Kg/Ha, rain 5.08 cm"}, "[11]": {"details": "Ray silt loam, 2.36 Kg/Ha, rain 10.16 cm"}, "[12]": {"details": "Ray silt loam, 0.14 Kg/Ha, rain 10.16 cm"}}, "note": "Where two headings read alike, the source gives them in different places."}
{"smiles": "CCCOCN(C(=O)CCl)c1c(C)cccc1C(F)(F)F", "note": "[Example 3, N--(n-propoxymethyl)-2'-trifluoromethyl-6'-methyl-2-chloroacetanilide]", "values": [{"measurement": "inhibition at 140 g/ha", "setting": "Barnyardgrass; Drummer silt clay, 0.14 Kg/Ha, rain 0 cm", "value": 81, "unit": "%"}, {"measurement": "inhibition at 140 g/ha", "setting": "Barnyardgrass; Drummer silt clay, 0.14 Kg/Ha, rain 1.27 cm", "value": 99, "unit": "%"}, {"measurement": "inhibition at 140 g/ha", "setting": "Barnyardgrass; Drummer silt clay, 0.14 Kg/Ha, rain 5.08 cm", "value": 94, "unit": "%"}, {"measurement": "inhibition at 140 g/ha", "setting": "Barnyardgrass; Drummer silt clay, 0.14 Kg/Ha, rain 10.16 cm", "value": 54, "unit": "%"}, {"measurement": "inhibition at 560 g/ha", "setting": "Barnyardgrass; Drummer silt clay, 0.56 Kg/Ha, rain 0 cm", "value": 100, "unit": "%"}, {"measurement": "inhibition at 560 g/ha", "setting": "Barnyardgrass; Drummer silt clay, 0.56 Kg/Ha, rain 1.27 cm", "value": 100, "unit": "%"}, {"measurement": "inhibition at 560 g/ha", "setting": "Barnyardgrass; Drummer silt clay, 0.56 Kg/Ha, rain 5.08 cm", "value": 100, "unit": "%"}, {"measurement": "inhibition at 560 g/ha", "setting": "Barnyardgrass; Drummer silt clay, 0.56 Kg/Ha, rain 10.16 cm", "value": 100, "unit": "%"}, {"measurement": "inhibition at 2360 g/ha", "setting": "Barnyardgrass; Drummer silt clay, 2.36 Kg/Ha, rain 0 cm", "value": 100, "unit": "%"}, {"measurement": "inhibition at 2360 g/ha", "setting": "Barnyardgrass; Drummer silt clay, 2.36 Kg/Ha, rain 1.27 cm", "value": 100, "unit": "%"}, {"measurement": "inhibition at 2360 g/ha", "setting": "Barnyardgrass; Drummer silt clay, 2.36 Kg/Ha, rain 5.08 cm", "value": 100, "unit": "%"}, {"measurement": "inhibition at 2360 g/ha", "setting": "Barnyardgrass; Drummer silt clay, 2.36 Kg/Ha, rain 10.16 cm", "value": 100, "unit": "%"}, {"measurement": "inhibition at 140 g/ha", "setting": "Barnyardgrass; [1]", "value": 99, "unit": "%"}, {"measurement": "inhibition at 140 g/ha", "setting": "Barnyardgrass; [2]", "value": 95, "unit": "%"}, {"measurement": "inhibition at 140 g/ha", "setting": "Barnyardgrass; [3]", "value": 63, "unit": "%"}, {"measurement": "inhibition at 560 g/ha", "setting": "Barnyardgrass; [4]", "value": 100, "unit": "%"}, {"measurement": "inhibition at 560 g/ha", "setting": "Barnyardgrass; [5]", "value": 100, "unit": "%"}, {"measurement": "inhibition at 560 g/ha", "setting": "Barnyardgrass; [6]", "value": 94, "unit": "%"}, {"measurement": "inhibition at 560 g/ha", "setting": "Barnyardgrass; [7]", "value": 52, "unit": "%"}, {"measurement": "inhibition at 2360 g/ha", "setting": "Barnyardgrass; [8]", "value": 100, "unit": "%"}, {"measurement": "inhibition at 2360 g/ha", "setting": "Barnyardgrass; [9]", "value": 100, "unit": "%"}, {"measurement": "inhibition at 2360 g/ha", "setting": "Barnyardgrass; [10]", "value": 100, "unit": "%"}, {"measurement": "inhibition at 2360 g/ha", "setting": "Barnyardgrass; [11]", "value": 95, "unit": "%"}, {"measurement": "inhibition at 140 g/ha", "setting": "Barnyardgrass; [12]", "value": 14, "unit": "%"}, {"measurement": "Fresh Weight", "setting": "Barnyardgrass; [1]", "value": 0.05, "unit": "Grams"}, {"measurement": "Fresh Weight", "setting": "Barnyardgrass; [2]", "value": 0.22, "unit": "Grams"}, {"measurement": "Fresh Weight", "setting": "Barnyardgrass; [3]", "value": 1.53, "unit": "Grams"}, {"measurement": "Fresh Weight", "setting": "Barnyardgrass; [12]", "value": 3.51, "unit": "Grams"}, {"measurement": "Fresh Weight", "setting": "Barnyardgrass; [4]", "value": 0, "unit": "Grams"}, {"measurement": "Fresh Weight", "setting": "Barnyardgrass; [5]", "value": 0, "unit": "Grams"}, {"measurement": "Fresh Weight", "setting": "Barnyardgrass; [6]", "value": 0.24, "unit": "Grams"}, {"measurement": "Fresh Weight", "setting": "Barnyardgrass; [7]", "value": 1.97, "unit": "Grams"}, {"measurement": "Fresh Weight", "setting": "Barnyardgrass; [8]", "value": 0, "unit": "Grams"}, {"measurement": "Fresh Weight", "setting": "Barnyardgrass; [9]", "value": 0, "unit": "Grams"}, {"measurement": "Fresh Weight", "setting": "Barnyardgrass; [10]", "value": 0, "unit": "Grams"}, {"measurement": "Fresh Weight", "setting": "Barnyardgrass; [11]", "value": 0.22, "unit": "Grams"}, {"measurement": "GR15 Rate", "setting": "peanuts", "value": "> 1.12", "unit": "Kg/Ha"}, {"measurement": "GR15 Rate", "setting": "lima beans", "value": 0.49, "unit": "Kg/Ha"}, {"measurement": "GR85 Rate", "setting": "purple nutsedge", "value": 0.12, "unit": "Kg/Ha"}, {"measurement": "selectivity factor (GR15/GR85)", "setting": "purple nutsedge; in rape", "value": 7.5}, {"measurement": "GR85 Rate", "setting": "common purslane", "value": 0.70, "unit": "Kg/Ha"}, {"measurement": "selectivity factor (GR15/GR85)", "setting": "common purslane; in rape", "value": 1.3}, {"measurement": "GR85 Rate", "setting": "redroot pigweed", "value": 0.39, "unit": "Kg/Ha"}, {"measurement": "selectivity factor (GR15/GR85)", "setting": "redroot pigweed; in rape", "value": 2.3}, {"measurement": "GR85 Rate", "setting": "common ragweed", "value": 0.49, "unit": "Kg/Ha"}, {"measurement": "selectivity factor (GR15/GR85)", "setting": "common ragweed; in rape", "value": 1.8}, {"measurement": "GR85 Rate", "setting": "prickly sida", "value": "> 1.12", "unit": "Kg/Ha"}, {"measurement": "selectivity factor (GR15/GR85)", "setting": "prickly sida; in rape", "value": "NS (non-selective)"}]}
